Source: ChEMBL document CHEMBL1125892 (J Med Chem, 1991)

How the values were obtained:
[1] = biological target: T1, 5-hydroxytryptamine receptor 1A (Rattus norvegicus, UniProt P19327); test: Binding affinity against 5-hydroxytryptamine 1A receptor using in rat hippocampal tissue using [3H]8-OH-DPAT as radioligand; assay type: tissue-based, Hippocampus
T1 sequence (P19327 whole entry): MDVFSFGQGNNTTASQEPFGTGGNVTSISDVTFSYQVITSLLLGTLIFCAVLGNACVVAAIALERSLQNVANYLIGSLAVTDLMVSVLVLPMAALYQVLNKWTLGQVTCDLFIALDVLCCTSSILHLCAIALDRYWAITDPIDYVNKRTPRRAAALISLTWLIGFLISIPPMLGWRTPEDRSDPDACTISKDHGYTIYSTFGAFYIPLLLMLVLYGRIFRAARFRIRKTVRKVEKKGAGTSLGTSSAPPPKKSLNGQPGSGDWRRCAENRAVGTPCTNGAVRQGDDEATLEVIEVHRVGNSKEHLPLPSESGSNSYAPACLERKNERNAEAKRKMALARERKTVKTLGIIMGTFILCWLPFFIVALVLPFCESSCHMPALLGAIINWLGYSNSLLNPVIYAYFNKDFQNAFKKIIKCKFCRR

D(2) dopamine receptor [2] = biological target: T2, D(2) dopamine receptor (Rattus norvegicus, UniProt P61169); test: Binding affinity against dopamine receptor D2 in rat corpus striatal tissue using [3H]spiperone as radioligand; assay type: tissue-based, Striatum
T2 sequence (P61169 whole entry): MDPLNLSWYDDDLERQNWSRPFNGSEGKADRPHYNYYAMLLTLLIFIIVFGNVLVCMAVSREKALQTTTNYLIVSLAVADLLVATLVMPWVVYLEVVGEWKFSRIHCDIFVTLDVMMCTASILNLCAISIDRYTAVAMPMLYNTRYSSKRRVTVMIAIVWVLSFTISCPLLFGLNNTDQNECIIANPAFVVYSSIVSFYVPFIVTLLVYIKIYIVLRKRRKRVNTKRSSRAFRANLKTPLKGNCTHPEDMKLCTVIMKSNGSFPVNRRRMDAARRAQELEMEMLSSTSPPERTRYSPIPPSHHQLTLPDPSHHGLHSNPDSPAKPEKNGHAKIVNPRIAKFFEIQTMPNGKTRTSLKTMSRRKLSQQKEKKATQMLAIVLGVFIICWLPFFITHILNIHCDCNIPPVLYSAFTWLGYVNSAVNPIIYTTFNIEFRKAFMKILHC

Rattus norvegicus [3] = species on record: Rattus norvegicus; test: Selectivity ratio of IC50 for dopamine receptor and Alpha-1 receptor
[4] = biological target: T3, Adrenergic receptor alpha-1 (Rattus norvegicus, UniProt P15823+P23944+P43140); test: Binding affinity against alpha-1 adrenergic receptor in rat cerebral cortex tissue using [3H]WB-4101 as radioligand; assay type: tissue-based
T3 sequence (P15823 whole entry): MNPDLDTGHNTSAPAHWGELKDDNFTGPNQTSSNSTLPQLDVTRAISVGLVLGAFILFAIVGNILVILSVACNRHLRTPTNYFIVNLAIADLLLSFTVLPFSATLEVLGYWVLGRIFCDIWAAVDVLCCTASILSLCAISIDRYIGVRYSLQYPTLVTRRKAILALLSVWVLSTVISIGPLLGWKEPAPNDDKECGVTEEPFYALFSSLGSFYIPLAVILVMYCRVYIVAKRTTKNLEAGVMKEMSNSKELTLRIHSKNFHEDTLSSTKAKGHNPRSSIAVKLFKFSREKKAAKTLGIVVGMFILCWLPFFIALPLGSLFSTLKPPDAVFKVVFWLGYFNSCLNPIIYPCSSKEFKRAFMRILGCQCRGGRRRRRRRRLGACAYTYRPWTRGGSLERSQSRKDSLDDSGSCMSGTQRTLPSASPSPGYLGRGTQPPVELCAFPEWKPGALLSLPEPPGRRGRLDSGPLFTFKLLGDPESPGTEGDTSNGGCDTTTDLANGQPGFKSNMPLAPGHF
T3 sequence (P23944 whole entry): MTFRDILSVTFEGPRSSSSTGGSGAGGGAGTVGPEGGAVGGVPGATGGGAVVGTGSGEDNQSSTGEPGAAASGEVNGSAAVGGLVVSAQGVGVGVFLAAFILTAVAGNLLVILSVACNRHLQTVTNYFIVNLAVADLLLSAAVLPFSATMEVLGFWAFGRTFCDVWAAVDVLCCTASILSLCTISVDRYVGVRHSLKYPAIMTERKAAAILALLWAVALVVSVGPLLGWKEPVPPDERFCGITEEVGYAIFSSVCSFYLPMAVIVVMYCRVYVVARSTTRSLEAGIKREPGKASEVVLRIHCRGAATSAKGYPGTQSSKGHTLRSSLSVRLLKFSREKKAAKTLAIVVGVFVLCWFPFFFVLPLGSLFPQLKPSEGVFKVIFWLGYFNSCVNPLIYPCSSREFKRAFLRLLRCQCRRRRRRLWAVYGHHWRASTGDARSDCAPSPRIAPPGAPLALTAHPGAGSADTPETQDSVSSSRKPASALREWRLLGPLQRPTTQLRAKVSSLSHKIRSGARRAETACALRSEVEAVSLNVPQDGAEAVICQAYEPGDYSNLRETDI
T3 sequence (P43140 whole entry): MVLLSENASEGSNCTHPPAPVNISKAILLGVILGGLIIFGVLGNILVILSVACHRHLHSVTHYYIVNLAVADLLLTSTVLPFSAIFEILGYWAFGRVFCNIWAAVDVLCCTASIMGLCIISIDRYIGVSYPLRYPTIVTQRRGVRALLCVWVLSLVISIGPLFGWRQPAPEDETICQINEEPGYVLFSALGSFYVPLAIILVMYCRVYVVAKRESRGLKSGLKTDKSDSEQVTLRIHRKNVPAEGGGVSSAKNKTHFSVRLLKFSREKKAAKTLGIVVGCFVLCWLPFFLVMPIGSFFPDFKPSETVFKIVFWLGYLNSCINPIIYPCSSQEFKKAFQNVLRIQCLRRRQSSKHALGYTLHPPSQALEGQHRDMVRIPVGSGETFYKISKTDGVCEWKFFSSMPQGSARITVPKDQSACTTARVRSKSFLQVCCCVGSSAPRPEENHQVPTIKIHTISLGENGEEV

[5] = biological target: T1, 5-hydroxytryptamine receptor 1A; test: Displacement of [3H]8-OH-DPAT from rat hippocampal 5-hydroxytryptamine 1A receptor; IA-Inactive; assay type: tissue-based, Hippocampus
Rattus norvegicus [6] = test: In vivo inhibition of conditional avoidance response in rats(CAR), after po administration; assay type: functional
[7] = biological target: T4, 5-hydroxytryptamine receptor 2A (Rattus norvegicus, UniProt P14842); test: Binding affinity against rat 5-hydroxytryptamine 2 receptor in rat cerebral cortex tissue using [3H]spiperone as radioligand; IA-Inactive; assay type: tissue-based
T4 sequence (P14842 whole entry): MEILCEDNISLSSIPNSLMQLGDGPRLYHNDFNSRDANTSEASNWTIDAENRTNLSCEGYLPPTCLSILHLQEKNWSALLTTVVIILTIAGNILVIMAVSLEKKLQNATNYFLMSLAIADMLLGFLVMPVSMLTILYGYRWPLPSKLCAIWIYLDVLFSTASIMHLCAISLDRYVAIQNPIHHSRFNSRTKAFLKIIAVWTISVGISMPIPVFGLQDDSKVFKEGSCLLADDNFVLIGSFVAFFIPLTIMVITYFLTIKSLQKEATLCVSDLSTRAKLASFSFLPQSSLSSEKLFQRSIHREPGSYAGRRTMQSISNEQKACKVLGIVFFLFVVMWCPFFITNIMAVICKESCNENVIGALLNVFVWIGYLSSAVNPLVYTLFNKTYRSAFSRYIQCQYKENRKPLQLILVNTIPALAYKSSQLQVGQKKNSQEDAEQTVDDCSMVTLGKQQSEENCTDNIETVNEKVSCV

D(2) dopamine receptor [8] = biological target: T2, D(2) dopamine receptor
Rattus norvegicus [9] = test: In vivo inhibition of conditional avoidance response in rats(CAR), after im administration; assay type: functional
Rattus norvegicus [10] = test: In vivo inhibition of conditional avoidance response in rats(CAR), after sc administration; assay type: functional
[11] = biological target: T1, 5-hydroxytryptamine receptor 1A; test: Binding affinity against 5-hydroxytryptamine 1A receptor of rat hippocampal tissue with [3H]5-HT; assay type: tissue-based, Hippocampus
[12] = biological target: T4, 5-hydroxytryptamine receptor 2A; test: Binding affinity against rat 5-hydroxytryptamine 2 receptor in rat cerebral cortex tissue using [3H]spiperone as radioligand; assay type: tissue-based
D(2) dopamine receptor [13] = biological target: T2, D(2) dopamine receptor; test: Binding affinity against Dopamine receptor D2 receptor of rat corpus striatal tissue with [3H]spiperone

## O=C1CC2(CCC(O)C2)CC(=O)N1CCC(O)CN1CCN(c2nsc3ccccc23)CC1 (stereo not drawn)
[1]
  IC50: 14.2 nM
D(2) dopamine receptor [2]
  IC50: 491 nM
Rattus norvegicus [3]
  Ratio: 69
[4]
  IC50: 7.15 nM

## O=C1CC2(CCCC2)CC(=O)N1CCCCN1CCN(c2n[s+]([O-])c3ccccc23)CC1 (stereo not drawn)
[5]
  IC50: Not Active
Rattus norvegicus [6]
  ED50: 11 mg/kg
[7]
  IC50: Not Active
D(2) dopamine receptor [8]
  IC50: Not Active

## O=C1CC2(CCC(O)C2)CC(=O)N1CCCCN1CCN(c2nsc3ccccc23)CC1 (stereo not drawn)
[1]
  IC50: 3.75 nM
D(2) dopamine receptor [2]
  IC50: 52.5 nM
Rattus norvegicus [3]
  Ratio: 60
[4]
  IC50: 0.876 nM

## O=C1CC2(CCCC2)CC(=O)N1CCCCN1CCN(C2=NS(=O)(=O)c3ccccc32)CC1
[5]
  IC50: Not Active
Rattus norvegicus [9]
  ED50: > 10 mg/kg
[7]
  IC50: Not Active
D(2) dopamine receptor [8]
  IC50: Not Active

## O=C1CCC2(C1)CC(=O)N(CCCCN1CCN(c3nsc4ccccc34)CC1)C(=O)C2
[1]
  IC50: 2.99 nM
D(2) dopamine receptor [2]
  IC50: 68.3 nM
Rattus norvegicus [3]
  Ratio: 52
Rattus norvegicus [10]
  ED50: > 60.3 mg/kg
[4]
  IC50: 1.3 nM

## O=C1CC2(CCCC2)C(O)C(=O)N1CCCCN1CCN(c2nsc3ccccc23)CC1 (stereo not drawn)
[1]
  IC50: 5.06 nM
Rattus norvegicus [9]
  ED50: 1 mg/kg

## O=C1CCC2(C1)CC(=O)N(CCCCN1CCN(c3n[s+]([O-])c4ccccc34)CC1)C(=O)C2 (stereo not drawn)
[5]
  IC50: Not Active
Rattus norvegicus [10]
  ED50: > 100 mg/kg
[7]
  IC50: Not Active
D(2) dopamine receptor [8]
  IC50: Not Active

## O=C1CC2(CCC(O)C2)CC(=O)N1CCCCN1CCN(c2n[s+]([O-])c3ccccc23)CC1 (stereo not drawn)
[5]
  IC50: Not Active
Rattus norvegicus [10]
  ED50: > 100 mg/kg
[7]
  IC50: Not Active
D(2) dopamine receptor [8]
  IC50: Not Active

## O=C1CN(C2=NS(=O)(=O)c3ccccc32)CCN1
[5]
  IC50: Not Active
Rattus norvegicus [10]
  ED50: > 50 mg/kg
[7]
  IC50: Not Active
D(2) dopamine receptor [8]
  IC50: Not Active

## COc1cccc2snc(N3CCNCC3)c12
[11]
  IC50: 121 nM
[7]
  IC50: Not Active
D(2) dopamine receptor [8]
  IC50: Not Active

## O=C1CC2(CCC(O)C2)CC(=O)N1CCCCN1CCN(C2=NS(=O)(=O)c3ccccc32)CC1 (stereo not drawn)
[5]
  IC50: Not Active
Rattus norvegicus [10]
  ED50: > 100 mg/kg
[7]
  IC50: Not Active
D(2) dopamine receptor [8]
  IC50: Not Active

## c1ccc2c(N3CCNCC3)nsc2c1 [BENZISOTHIAZOLE-3-YL-PIPERAZINE]
[1]
  IC50: 190 nM
Rattus norvegicus [6]
  ED50: > 100 mg/kg
D(2) dopamine receptor [8]
  IC50: Not Active

## O=C1CC2(CCCC2)C(O)C(=O)N1CCCCN1CCN(c2n[s+]([O-])c3ccccc23)CC1 (stereo not drawn)
[5]
  IC50: Not Active
[7]
  IC50: Not Active
D(2) dopamine receptor [8]
  IC50: Not Active

## O=C1CC2(CCCC2)C(C(=O)NCCCCN2CCN(c3nsc4ccccc34)CC2)O1 (stereo not drawn)
[1]
  IC50: 98.7 nM
[12]
  IC50: 4.5 nM
D(2) dopamine receptor [2]
  IC50: 150 nM
Rattus norvegicus [3]
  Ratio: 60
[4]
  IC50: 2.5 nM

## COc1ccc2snc(N3CCNCC3)c2c1
[11]
  IC50: 20.9 nM
[7]
  IC50: Not Active
D(2) dopamine receptor [8]
  IC50: Not Active

## O=C1CC2(CCCC2)CC(=O)N1CCC(O)CN1CCN(c2nsc3ccccc23)CC1 (stereo not drawn)
[1]
  IC50: 24.9 nM
D(2) dopamine receptor [2]
  IC50: 111 nM
Rattus norvegicus [3]
  Ratio: 13
[4]
  IC50: 8.3 nM

## O=C1CC2(CCCC2)CC(=O)N1CCCCN1CCN(c2nsc3ccccc23)CC1 [TIOSPIRONE]
D(2) dopamine receptor [13]
  IC50: 8.4 nM
Rattus norvegicus [9]
  ED50: 0.35 mg/kg

## COc1cccc2c(N3CCNCC3)nsc12
[5]
  IC50: Not Active
[7]
  IC50: Not Active
D(2) dopamine receptor [8]
  IC50: Not Active

## O=C1CC2(CCCC2)C(O)C(=O)N1CCCCN1CCN(C2=NS(=O)(=O)c3ccccc32)CC1 (stereo not drawn)
[5]
  IC50: Not Active
[7]
  IC50: Not Active
D(2) dopamine receptor [8]
  IC50: Not Active

## [O-][s+]1nc(N2CCNCC2)c2ccccc21 (stereo not drawn) [BITP-SULFONE]
[5]
  IC50: Not Active
Rattus norvegicus [6]
  ED50: > 100 mg/kg
[7]
  IC50: Not Active
D(2) dopamine receptor [8]
  IC50: Not Active

## O=C1CC2(CCCC2)CC(=O)N1CCC(O)CN1CCN(c2n[s+]([O-])c3ccccc23)CC1 (stereo not drawn)
[5]
  IC50: Not Active
Rattus norvegicus [6]
  ED50: > 50 mg/kg
[7]
  IC50: Not Active
D(2) dopamine receptor [8]
  IC50: Not Active

## O=S1(=O)N=C(N2CCNCC2)c2ccccc21 [BENZISOTHIAZOLE-3YL-PIPERAZINE SULFOXIDE]
[5]
  IC50: Not Active
Rattus norvegicus [6]
  ED50: > 100 mg/kg
[7]
  IC50: Not Active
D(2) dopamine receptor [8]
  IC50: Not Active

## COc1ccc2c(N3CCNCC3)nsc2c1
[5]
  IC50: Not Active
[7]
  IC50: Not Active
D(2) dopamine receptor [8]
  IC50: Not Active
